In the NIST ThermoML archive (doi:10.1016/j.jct.2006.06.008):

Tests used:
[1] = 101 kPa, Liquid
[2] = xn = mol fraction of the nth substance listed; details: 101 kPa, Liquid

CCCCO [butan-1-ol]
[1]
Details	mass density [kg/m3]	speed of sound [m/s]	viscosity [mPa·s]
293.15 K	809.5	1257	2.941
298.15 K	805.75	1240	2.571
303.15 K	801.8	1224	2.255

C1CCCCC1 [cyclohexane]
[1]
Details	mass density [kg/m3]	speed of sound [m/s]	viscosity [mPa·s]
293.15 K	778.62	1279	0.968
298.15 K	773.92	1254	0.887
303.15 K	769.19	1230	0.816

C1CCCC1 [cyclopentane]
[1]
Details	mass density [kg/m3]	speed of sound [m/s]	viscosity [mPa·s]
293.15 K	744.52	1232	0.439
298.15 K	739.55	1206	0.416
303.15 K	734.54	1180	0.394

C1CCCC1 [cyclopentane] + CCCO
[2]
Details	mass density, 293.15 K [kg/m3]	mass density, 298.15 K [kg/m3]	mass density, 303.15 K [kg/m3]	speed of sound, 293.15 K [m/s]	speed of sound, 298.15 K [m/s]	speed of sound, 303.15 K [m/s]	viscosity, 293.15 K [mPa·s]	viscosity, 298.15 K [mPa·s]	viscosity, 303.15 K [mPa·s]
x1 = 0.0461	800.15	796.09	791.98	1219	1202	1184	2.035	1.809	1.613
x1 = 0.09	796.74	792.61	788.44	1216	1198	1180	1.859	1.655	1.479
x1 = 0.1885	789.64	785.36	781.04	1209	1190	1171	1.571	1.406	1.275
x1 = 0.2951	782.12	777.69	773.21	1204	1183	1163	1.284	1.159	1.052
x1 = 0.4056	774.79	770.22	765.59	1200	1178	1157	1.057	0.961	0.875
x1 = 0.5051	768.67	763.96	759.2	1199	1176	1153	0.867	0.79	0.725
x1 = 0.61	762.67	757.84	752.96	1199	1175	1152	0.712	0.656	0.608
x1 = 0.7109	757.16	752.26	747.29	1200	1176	1152	0.594	0.553	0.514
x1 = 0.8225	751.67	746.7	741.66	1206	1181	1156	0.507	0.476	0.448
x1 = 0.9134	747.4	742.5	737.43	1214	1188	1163	0.46	0.434	0.41
x1 = 0.9532	745.94	740.91	735.84	1219	1193	1168	0.447	0.422	0.4
x1 = 1	744.52	739.55	734.54	1232	1206	1180	0.439	0.416	0.394

C1CCCC1 [cyclopentane] + CCO
[2]
Details	mass density, 293.15 K [kg/m3]	mass density, 298.15 K [kg/m3]	mass density, 303.15 K [kg/m3]	speed of sound, 293.15 K [m/s]	speed of sound, 298.15 K [m/s]	speed of sound, 303.15 K [m/s]	viscosity, 293.15 K [mPa·s]	viscosity, 298.15 K [mPa·s]	viscosity, 303.15 K [mPa·s]
x1 = 0.0488	784.97	780.62	776.23	1157	1139	1122	1.148	1.047	0.956
x1 = 0.1011	780.67	776.25	771.78	1155	1137	1118	1.07	0.977	0.896
x1 = 0.1932	774.13	769.58	764.99	1154	1135	1116	0.955	0.875	0.806
x1 = 0.2926	768.22	763.55	758.83	1157	1136	1116	0.822	0.756	0.696
x1 = 0.3897	763.12	758.34	753.5	1162	1140	1118	0.735	0.679	0.628
x1 = 0.489	758.81	753.94	749.01	1168	1146	1123	0.659	0.609	0.564
x1 = 0.5973	754.7	749.75	744.74	1177	1153	1130	0.582	0.54	0.502
x1 = 0.7012	751.29	746.28	741.2	1186	1162	1137	0.521	0.487	0.456
x1 = 0.7992	748.53	743.48	738.38	1196	1171	1146	0.475	0.446	0.42
x1 = 0.8886	746.41	741.36	736.25	1208	1182	1156	0.448	0.423	0.4
x1 = 0.9495	745.36	740.33	735.23	1217	1192	1166	0.44	0.417	0.394
x1 = 1	744.52	739.55	734.54	1232	1206	1180	0.439	0.416	0.394

CCO [ethanol]
[1]
Details	mass density [kg/m3]	speed of sound [m/s]	viscosity [mPa·s]
293.15 K	789.75	1162	1.187
298.15 K	785.46	1145	1.082
303.15 K	781.15	1128	0.987

CCO [ethanol] + C1CCCC1
[2], x2 = 0
Details	mass density [kg/m3]	speed of sound [m/s]	viscosity [mPa·s]
293.15 K	789.75	1162	1.187
298.15 K	785.46	1145	1.082
303.15 K	781.15	1128	0.987

CCO [ethanol] + C1CCCCC1
[2], x2 = 0
Details	mass density [kg/m3]	speed of sound [m/s]	viscosity [mPa·s]
293.15 K	789.75	1162	1.187
298.15 K	785.46	1145	1.082
303.15 K	781.15	1128	0.987

CCCO [propan-1-ol]
[1]
Details	mass density [kg/m3]	speed of sound [m/s]	viscosity [mPa·s]
293.15 K	803.59	1223	2.159
298.15 K	799.58	1206	1.915
303.15 K	795.55	1189	1.713

CCCO [propan-1-ol] + C1CCCC1
[2], x2 = 0
Details	mass density [kg/m3]	speed of sound [m/s]	viscosity [mPa·s]
293.15 K	803.59	1223	2.159
298.15 K	799.58	1206	1.915
303.15 K	795.55	1189	1.713

CCCO [propan-1-ol] + C1CCCCC1
[2], x2 = 0
Details	mass density [kg/m3]	speed of sound [m/s]	viscosity [mPa·s]
293.15 K	803.59	1223	2.159
298.15 K	799.58	1206	1.915
303.15 K	795.55	1189	1.713
